Measured values reported in patent US20190330275A1 (priority 2016, published 2019).
Peptide text beside a SMILES is read from it.

Assays:
rat α3β4 nAChR = rat α3β4 nAChR (Rattus norvegicus, UniProt P04757+P12392); test: cell-based; conditions: for IC50: α3β4 IC50 (half-blocking dose)
rat α6/α3β4 nAChR = rat α6/α3β4 nAChR (Rattus norvegicus, UniProt P04757+P12392+P43143); test: cell-based
[1] = α6/α3β4 IC50 (half-blocking dose)

rat α3β4 nAChR, sequence (P04757 26-499 limits assumed): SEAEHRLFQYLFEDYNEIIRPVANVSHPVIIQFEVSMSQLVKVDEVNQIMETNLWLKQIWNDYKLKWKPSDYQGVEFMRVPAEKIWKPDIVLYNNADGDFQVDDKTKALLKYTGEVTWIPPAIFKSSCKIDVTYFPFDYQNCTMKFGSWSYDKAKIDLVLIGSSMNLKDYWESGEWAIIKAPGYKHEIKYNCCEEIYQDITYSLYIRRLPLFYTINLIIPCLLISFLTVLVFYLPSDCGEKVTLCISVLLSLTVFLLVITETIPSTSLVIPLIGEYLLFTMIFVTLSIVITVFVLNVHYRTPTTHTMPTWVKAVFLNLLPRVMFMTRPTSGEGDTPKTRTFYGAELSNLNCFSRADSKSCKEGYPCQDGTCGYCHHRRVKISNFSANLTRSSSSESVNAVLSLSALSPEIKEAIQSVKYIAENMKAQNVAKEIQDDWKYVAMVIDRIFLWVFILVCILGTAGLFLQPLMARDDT
rat α3β4 nAChR, sequence (P12392 21-495 limits assumed): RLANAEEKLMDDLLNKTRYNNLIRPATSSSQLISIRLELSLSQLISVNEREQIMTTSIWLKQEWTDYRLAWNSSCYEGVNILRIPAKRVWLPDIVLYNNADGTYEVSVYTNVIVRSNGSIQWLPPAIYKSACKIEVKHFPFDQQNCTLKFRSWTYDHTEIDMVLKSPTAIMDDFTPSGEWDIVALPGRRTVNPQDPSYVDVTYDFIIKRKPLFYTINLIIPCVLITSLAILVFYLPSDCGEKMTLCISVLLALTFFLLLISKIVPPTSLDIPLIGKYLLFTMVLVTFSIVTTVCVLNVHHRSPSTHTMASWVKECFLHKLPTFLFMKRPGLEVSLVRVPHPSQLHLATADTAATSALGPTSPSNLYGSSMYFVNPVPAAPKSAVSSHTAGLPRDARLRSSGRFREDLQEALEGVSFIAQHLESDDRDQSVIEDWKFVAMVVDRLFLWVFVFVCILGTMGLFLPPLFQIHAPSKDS
rat α6/α3β4 nAChR, sequence (P04757 whole entry, looked up): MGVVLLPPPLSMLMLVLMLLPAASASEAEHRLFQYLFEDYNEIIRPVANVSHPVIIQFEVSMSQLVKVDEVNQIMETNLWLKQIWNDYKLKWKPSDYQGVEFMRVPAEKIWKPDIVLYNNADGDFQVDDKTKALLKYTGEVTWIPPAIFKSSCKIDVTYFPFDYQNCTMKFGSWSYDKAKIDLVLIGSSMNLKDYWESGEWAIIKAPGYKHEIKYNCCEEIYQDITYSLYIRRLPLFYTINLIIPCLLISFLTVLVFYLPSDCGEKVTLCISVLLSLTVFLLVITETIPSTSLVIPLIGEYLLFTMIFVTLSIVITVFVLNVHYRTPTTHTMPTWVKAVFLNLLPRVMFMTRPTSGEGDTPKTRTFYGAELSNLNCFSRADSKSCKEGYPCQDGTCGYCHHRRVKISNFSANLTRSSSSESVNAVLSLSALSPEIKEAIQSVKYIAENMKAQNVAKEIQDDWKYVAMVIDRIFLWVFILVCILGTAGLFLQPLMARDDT
rat α6/α3β4 nAChR, sequence (P12392 whole entry, looked up): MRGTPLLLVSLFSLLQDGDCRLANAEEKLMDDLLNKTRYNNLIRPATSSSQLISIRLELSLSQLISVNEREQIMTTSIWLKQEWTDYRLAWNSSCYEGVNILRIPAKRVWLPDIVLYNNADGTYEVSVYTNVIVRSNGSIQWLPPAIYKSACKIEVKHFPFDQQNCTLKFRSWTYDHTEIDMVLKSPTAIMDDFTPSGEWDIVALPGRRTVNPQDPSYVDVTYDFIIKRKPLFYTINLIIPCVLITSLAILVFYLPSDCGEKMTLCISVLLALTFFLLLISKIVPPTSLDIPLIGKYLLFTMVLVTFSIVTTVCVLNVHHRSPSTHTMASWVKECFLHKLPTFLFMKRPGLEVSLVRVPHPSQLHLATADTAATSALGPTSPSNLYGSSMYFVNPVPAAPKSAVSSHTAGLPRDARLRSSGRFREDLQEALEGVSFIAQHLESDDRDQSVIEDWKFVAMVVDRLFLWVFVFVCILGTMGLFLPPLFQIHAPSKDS
rat α6/α3β4 nAChR, sequence (P43143 whole entry, looked up): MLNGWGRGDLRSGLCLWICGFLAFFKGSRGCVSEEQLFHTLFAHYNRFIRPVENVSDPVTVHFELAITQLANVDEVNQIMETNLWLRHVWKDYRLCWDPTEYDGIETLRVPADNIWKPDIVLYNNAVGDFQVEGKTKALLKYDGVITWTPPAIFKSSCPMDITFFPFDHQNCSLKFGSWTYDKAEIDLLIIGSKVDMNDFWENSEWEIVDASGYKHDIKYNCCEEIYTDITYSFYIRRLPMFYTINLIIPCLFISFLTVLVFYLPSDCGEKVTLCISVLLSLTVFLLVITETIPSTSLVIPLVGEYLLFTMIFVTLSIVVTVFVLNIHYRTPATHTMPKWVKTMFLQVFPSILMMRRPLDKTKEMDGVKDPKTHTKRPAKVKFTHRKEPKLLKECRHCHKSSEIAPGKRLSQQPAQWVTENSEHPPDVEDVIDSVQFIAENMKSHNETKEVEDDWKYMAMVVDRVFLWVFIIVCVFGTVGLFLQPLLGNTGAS

Compound	α3β4 IC50 ratio (rat α3β4 nAChR)	IC50 (rat α3β4 nAChR)	IC50 ratio of α6/α3β4 vs. α3β4 (Discrimination) (rat α6/α3β4 nAChR)	α6/α3β4 IC50 ratio (rat α6/α3β4 nAChR)	IC50 (rat α6/α3β4 nAChR; [1])	blocking effect on the current of rat α3β4 nAChRs (rat α3β4 nAChR)	IC50 (rat α6/α3β4 nAChR; α6/α3β4 IC50)
CSCC[C@@H]1NC(=O)[C@H](C)NC(=O)[C@H](CO)NC(=O)[C@@H]2CSSC[C@H](NC(=O)CN)C(=O)N[C@@H](CSSC[C@@H](C(N)=O)NC(=O)[C@H](C)NC(=O)[C@@H]3CCCN3C(=O)[C@H](CO)NC1=O)C(=O)N[C@@H](CO)C(=O)N[C@@H](Cc1c[nH]cn1)C(=O)N1CCC[C@H]1C(=O)N[C@@H](C(C)C)C(=O)N2 [TxID[I14A]] (HELM PEPTIDE1{G.C.C.S.H.P.V.C.S.A.M.S.P.A.C.[am]}$PEPTIDE1,PEPTIDE1,2:R3-8:R3|PEPTIDE1,PEPTIDE1,3:R3-15:R3$$$V2.0)	4.4	16.1 nM	2.8	1.3	45.8 nM	–	–
CSCC[C@@H]1NC(=O)[C@H](C)NC(=O)[C@H](CO)NC(=O)[C@@H]2CSSC[C@H](NC(=O)CN)C(=O)N[C@@H](CSSC[C@@H](C(N)=O)NC(=O)[C@H](CC(=O)O)NC(=O)[C@@H]3CCCN3C(=O)[C@H](CO)NC1=O)C(=O)N[C@@H](CO)C(=O)N[C@@H](Cc1c[nH]cn1)C(=O)N1CCC[C@H]1C(=O)N[C@@H](C(C)C)C(=O)N2 [TxID[I14D]] (HELM PEPTIDE1{G.C.C.S.H.P.V.C.S.A.M.S.P.D.C.[am]}$PEPTIDE1,PEPTIDE1,2:R3-8:R3|PEPTIDE1,PEPTIDE1,3:R3-15:R3$$$V2.0)	2.7	9.8 nM	4.2	1.2	40.8 nM	–	–
CSCC[C@@H]1NC(=O)[C@H](C)NC(=O)[C@H](CO)NC(=O)[C@@H]2CSSC[C@H](NC(=O)CN)C(=O)N[C@@H](CSSC[C@@H](C(N)=O)NC(=O)[C@H](CC(C)C)NC(=O)[C@@H]3CCCN3C(=O)[C@H](CO)NC1=O)C(=O)N[C@@H](CO)C(=O)N[C@@H](Cc1c[nH]cn1)C(=O)N1CCC[C@H]1C(=O)N[C@@H](C(C)C)C(=O)N2 [TxID[I14L]] (HELM PEPTIDE1{G.C.C.S.H.P.V.C.S.A.M.S.P.L.C.[am]}$PEPTIDE1,PEPTIDE1,2:R3-8:R3|PEPTIDE1,PEPTIDE1,3:R3-15:R3$$$V2.0)	2.8	9.98 nM	2.9	0.9	29 nM	–	–
CSCC[C@@H]1NC(=O)[C@H](C)NC(=O)[C@H](CO)NC(=O)[C@@H]2CSSC[C@H](NC(=O)CN)C(=O)N[C@@H](CSSC[C@@H](C(N)=O)NC(=O)[C@H](CCCNC(=N)N)NC(=O)[C@@H]3CCCN3C(=O)[C@H](CO)NC1=O)C(=O)N[C@@H](CO)C(=O)N[C@@H](Cc1c[nH]cn1)C(=O)N1CCC[C@H]1C(=O)N[C@@H](C(C)C)C(=O)N2 [TxID[I14R]] (HELM PEPTIDE1{G.C.C.S.H.P.V.C.S.A.M.S.P.R.C.[am]}$PEPTIDE1,PEPTIDE1,2:R3-8:R3|PEPTIDE1,PEPTIDE1,3:R3-15:R3$$$V2.0)	2.5	9.2 nM	7.3	2.0	67.4 nM	–	–
CSCC[C@@H]1NC(=O)[C@H](C)NC(=O)[C@H](CO)NC(=O)[C@@H]2CSSC[C@H](NC(=O)CN)C(=O)N[C@@H](CSSC[C@@H](C(N)=O)NC(=O)[C@H](Cc3ccc(O)cc3)NC(=O)[C@@H]3CCCN3C(=O)[C@H](CO)NC1=O)C(=O)N[C@@H](CO)C(=O)N[C@@H](Cc1c[nH]cn1)C(=O)N1CCC[C@H]1C(=O)N[C@@H](C(C)C)C(=O)N2 [TxID[I14Y]] (HELM PEPTIDE1{G.C.C.S.H.P.V.C.S.A.M.S.P.Y.C.[am]}$PEPTIDE1,PEPTIDE1,2:R3-8:R3|PEPTIDE1,PEPTIDE1,3:R3-15:R3$$$V2.0)	2.7	10 nM	3.9	1.1	38.7 nM	–	–
CC[C@H](C)[C@@H]1NC(=O)[C@@H]2CCCN2C(=O)[C@H](CO)NC(=O)[C@H](Cc2c[nH]cn2)NC(=O)[C@H](C)NC(=O)[C@H](CO)NC(=O)[C@@H]2CSSC[C@H](NC(=O)CN)C(=O)N[C@@H](CSSC[C@@H](C(N)=O)NC1=O)C(=O)N[C@@H](CO)C(=O)N[C@@H](Cc1c[nH]cn1)C(=O)N1CCC[C@H]1C(=O)N[C@@H](C(C)C)C(=O)N2 [TxID[M11H]] (HELM PEPTIDE1{G.C.C.S.H.P.V.C.S.A.H.S.P.I.C.[am]}$PEPTIDE1,PEPTIDE1,2:R3-8:R3|PEPTIDE1,PEPTIDE1,3:R3-15:R3$$$V2.0)	–	> 10000 nM	–	103	3490 nM	no blocking effects	1000 to 10000 nM
CC[C@H](C)[C@@H]1NC(=O)[C@@H]2CCCN2C(=O)[C@H](CO)NC(=O)[C@H](CCSC)NC(=O)[C@H](C)NC(=O)[C@H](CO)NC(=O)[C@@H]2CSSC[C@H](NC(=O)CN)C(=O)N[C@@H](CSSC[C@@H](C(N)=O)NC1=O)C(=O)N[C@@H](CO)C(=O)N[C@@H](Cc1c[nH]cn1)C(=O)N[C@@H](C)C(=O)N[C@@H](C(C)C)C(=O)N2 [TxID[P6A]] (HELM PEPTIDE1{G.C.C.S.H.A.V.C.S.A.M.S.P.I.C.[am]}$PEPTIDE1,PEPTIDE1,2:R3-8:R3|PEPTIDE1,PEPTIDE1,3:R3-15:R3$$$V2.0)	–	> 10000 nM	–	–	> 10000 nM	–	–
CC[C@H](C)[C@@H]1NC(=O)[C@H](C)NC(=O)[C@H](CO)NC(=O)[C@H](CCSC)NC(=O)[C@H](C)NC(=O)[C@H](CO)NC(=O)[C@@H]2CSSC[C@H](NC(=O)CN)C(=O)N[C@@H](CSSC[C@@H](C(N)=O)NC1=O)C(=O)N[C@@H](CO)C(=O)N[C@@H](Cc1c[nH]cn1)C(=O)N1CCC[C@H]1C(=O)N[C@@H](C(C)C)C(=O)N2 [TxID[P13A]] (HELM PEPTIDE1{G.C.C.S.H.P.V.C.S.A.M.S.A.I.C.[am]}$PEPTIDE1,PEPTIDE1,2:R3-8:R3|PEPTIDE1,PEPTIDE1,3:R3-15:R3$$$V2.0)	–	> 10000 nM	–	–	> 10000 nM	–	–
CC[C@H](C)[C@@H]1NC(=O)[C@@H]2CCCN2C(=O)[C@H](CO)NC(=O)[C@H](CCSC)NC(=O)[C@H](C)NC(=O)[C@H](CO)NC(=O)[C@@H]2CSSC[C@H](NC(=O)CN)C(=O)N[C@@H](CSSC[C@@H](C(N)=O)NC1=O)C(=O)N[C@@H](C)C(=O)N[C@@H](Cc1c[nH]cn1)C(=O)N1CCC[C@H]1C(=O)N[C@@H](C(C)C)C(=O)N2 [TxID[S4A]] (HELM PEPTIDE1{G.C.C.A.H.P.V.C.S.A.M.S.P.I.C.[am]}$PEPTIDE1,PEPTIDE1,2:R3-8:R3|PEPTIDE1,PEPTIDE1,3:R3-15:R3$$$V2.0)	3.0	–	5.9	1.9	–	–	–
CC[C@H](C)[C@@H]1NC(=O)[C@@H]2CCCN2C(=O)[C@H](CO)NC(=O)[C@H](CC(C)C)NC(=O)[C@H](C)NC(=O)[C@H](C)NC(=O)[C@@H]2CSSC[C@H](NC(=O)CN)C(=O)N[C@@H](CSSC[C@@H](C(N)=O)NC1=O)C(=O)N[C@@H](CO)C(=O)N[C@@H](Cc1c[nH]cn1)C(=O)N1CCC[C@H]1C(=O)N[C@@H](C(C)C)C(=O)N2 [TxID[S9A, M11I]] (HELM PEPTIDE1{G.C.C.S.H.P.V.C.A.A.L.S.P.I.C.[am]}$PEPTIDE1,PEPTIDE1,2:R3-8:R3|PEPTIDE1,PEPTIDE1,3:R3-15:R3$$$V2.0)	8.4	–	0.3	3.0	–	–	–
